Data as given in publication PMC12549899 (Nature Communications, 2025).
“And” between values parts separate entries of the source, which are not always exact repeats. Equal entries are not always repeated.

Biological target: T1, DrOTOP1 M573W (Danio rerio, UniProt Q7ZWK8, M573W)
T1 construct: A previously generated codon-optimized full-length DrOTOP1[8]; (UniProt: Q7ZWK8) construct; expressed in transfected cells; host or cells: HEK-293 (CRL-1573, ATCC)
T1 sequence (Q7ZWK8 1-586 M573W): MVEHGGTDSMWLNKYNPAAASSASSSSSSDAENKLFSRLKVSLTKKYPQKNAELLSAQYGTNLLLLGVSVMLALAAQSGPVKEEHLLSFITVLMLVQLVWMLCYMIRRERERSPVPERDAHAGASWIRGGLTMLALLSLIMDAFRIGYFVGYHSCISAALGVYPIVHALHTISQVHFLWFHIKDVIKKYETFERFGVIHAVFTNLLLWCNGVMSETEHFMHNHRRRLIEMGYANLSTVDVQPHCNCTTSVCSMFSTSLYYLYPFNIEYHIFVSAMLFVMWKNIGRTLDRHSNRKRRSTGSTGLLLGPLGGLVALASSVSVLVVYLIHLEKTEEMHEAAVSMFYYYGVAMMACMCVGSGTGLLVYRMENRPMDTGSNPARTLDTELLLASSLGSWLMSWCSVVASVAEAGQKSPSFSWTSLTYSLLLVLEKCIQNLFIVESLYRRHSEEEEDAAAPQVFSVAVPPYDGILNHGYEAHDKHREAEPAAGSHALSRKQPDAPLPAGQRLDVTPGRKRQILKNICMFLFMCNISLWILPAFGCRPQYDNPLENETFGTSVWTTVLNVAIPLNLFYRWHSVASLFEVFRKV
Experiment: Whole-cell patch-clamp, inhibition of acid-evoked currents, DrOTOP1 M573W (outer site)
Type: cell-based, zebrafish (Danio rerio)
Source text: To functionally test the significance of the two binding sites identified by cryo-EM, we generated point mutations of DrOTOP1 using the binding poses and conformational changes observed in DrOTOP1_C2.2 to guide our mutations. As per the binding pose that best fits our cryo-EM density, C2.2 forms the following interactions in the outer site: hydrophobic packing against many non-polar residues W126, G130, M133, L134, F271, F570, and M573, and π-stacking with W532 (Fig. 5A). In addition, C2.2 could potentially form H-bonds with E267, if the sidechain is protonated or a water bridge is present, and with H574 if it moves closer (Fig. 5A). Likewise, C2.36 presents a heterocyclic nitrogen that can potentially form a H-bond with E267, similarly, provided a protonation or water bridge is present (Fig. 5B). In addition, C2.36 forms a T-shaped π-stacking interaction with H574, whose sidechain has rotated 90 degrees (compared to DrOTOP1_apo), presumably to accommodate the interaction (Fig. 5B). Considering other inhibitors discovered from the second round of screening, many contain functional groups like the carbonyl groups of Group 1 molecules and the heterocyclic nitrogen atoms of Group 2 molecules (Supplementary Fig. 3E), that can potentially form similar H-bonds with E267 as C2.2 and C2.36, assuming the binding modes are similar. In the central site, C2.2 binds with the following interactions: hydrophobic packing with residues V201, F271, A274, V278, and A388, π-stacking with F277, and H-bonding with E384 (Fig. 5C).
Each non-aromatic residue was mutated to tryptophan, which was expected to cause steric occlusion. […] This seemed appropriate given the small number of H-bonds in these pockets, the ambiguity of how the inhibitors fit the density, and the prevalence of hydrophobic packing interactions (Fig. 5A–C).
HEK-293 cells (CRL-1573, ATCC) were cultured in DMEM (Thermofisher 11995073) containing 10% fetal bovine serum (Life Technology 16000044) and Penicillin-Streptomycin (100 I.U./mL) and (100 µg/mL), respectively. Cells were transfected with WT DrOTOP1 or mutant DrOTOP1 channels in 35 mm petri dishes, with ~ 500 ng DNA and 2 μL TransIT-LT1 transfection reagent (Mirus Bio Corporation, Cat # MIR2300) following the manufacturer’s protocol. All constructs were subcloned into a pcDNA3.1 vector that adds an N-terminal fusion tag consisting of an octahistidine tag followed by eGFP, a Gly-Thr-Gly-Thr linker and a 3C protease cleavage site ([…]) followed by WT DrOTOP1, WT mOTOP1, WT hOTOP1, or mutated DrOTOP1. Point mutations were generated via In-Fusion Cloning (Takara) using single-stranded DNA primers generated through IDT and sequence confirmed by Sanger sequencing (GeneWiz).
Whole-cell patch-clamp recording was performed as previously described[6],[22],[25]. Recordings were made with an Axopatch 200B amplifier, digitized with a Digidata 1322a 16-bit data acquisition system, acquired with pClamp 8.2 and analyzed with Clampfit 10 (Molecular Devices). Recordings were sampled at 5 kHz and filtered at 1 kHz. Patch Pipettes with resistance of […] were fabricated from borosilicate glass, and only recordings with a giga-Ohm seal were used in analysis. Membrane potential was held at −80 mV for the duration of recordings. At the beginning of recordings and between, cells were washed with Tyrode’s solution (see below). Once a giga-Ohm seal was reached, cells were lifted and placed in front of microcapillary tubes controlled by a Fast-Step perfusion system (Warner Instruments) so that extracellular solutions could be rapidly exchanged during each experiment.
Standard Tyrode’s solution consisted of 145 mM NaCl, 5 mM KCl, MgCl2, 2 mM CaCl2, 20 mM D-Glucose, and 10 mM HEPES (for pH 7.4). All other extracellular patch-clamp solutions contained 160 mM NMDG-Cl, 2 mM CaCl2, and the following buffers: 10 mM HEPES (for pH 7.4), 10 mM MES (for pH 6.5-5.5), 10 mM CHES for pH 10, and 10 mM HomoPIPES for (pH 5.0). pH adjusted with HCl. […]

Row | Compound | Hill coefficient | inhibition at 3 µM (3 µM, single cells) [%] | inhibition at 30 µM (30 µM, single cells) [%] | inhibition at 100 µM (100 µM, single cells) [%] | inhibition at 300 µM (300 µM, single cells) [%] | IC50 (pH 5.5) [µM] | Inhibition of currents (100 µM, single cells)
1 | C=C(C)COc1ccccc1NC(=O)c1nc[nH]c1C [C2.2] | 1.238 | 4.02 | 46.6 | 84.3 | 91.4 | 30.4 | –
2 | O=C(/C(=N\O)c1ccccc1)c1ccccc1 [C11, benzil monoxime] | – | – | – | 51.6 | – | – | 53.3175% and 66.3617% and 67.3077% and 51.54%
